In general, EC50 refers to the midpoint of the concentration-response curve.

Consider ten compounds from article PMC7115508 (European Journal of Medicinal Chemistry, 2011).

The structures appear in SMILES notation.

Series [1] deals with normal human fibroblast cell HS27.
Series [2] has as its system HCV RNA replication in HCV replicon cell (Huh-7 carrying the subgenomic HCV genotype 1 replicon). Conditions: read-out: Antiviral Activity HCV (EC50); cited from earlier work.

Take `O=c1cc(OCc2ccccc2)oc2ccc(OCc3cccc(Cl)c3)c(O)c12` [5a, 2-benzyloxy-6-(3-chloro-benzyloxy)-5-hydroxy-chromen-4-one]: the “Cytotoxicity: concentration required to reduce proliferation of normal human fibroblast cell HS27 by 50%” value in series [1] is >50 µM. For `O=c1cc(OCc2cccc(Cl)c2)oc2ccc(OCc3cccc(Cl)c3)c(O)c12` [5b, 2,6-bis-(3-chloro-benzyloxy)-5-hydroxy-chromen-4-one], the “Cytotoxicity: concentration required to reduce proliferation of normal human fibroblast cell HS27 by 50%” value in series [1] was >50 µM. Still for that read-out and setting: as for `O=c1cc(OCc2ccc(Cl)cc2)oc2ccc(OCc3cccc(Cl)c3)c(O)c12` [5c, 6-(3-chloro-benzyloxy)-2-(4-chloro-benzyloxy)-5-hydroxy-chromen-4-one], the figure is >50 µM. On the same count and under the same terms, next, `O=c1cc(OCc2cc(Cl)cc(Cl)c2)oc2ccc(OCc3cccc(Cl)c3)c(O)c12` [5d, 6-(3-chloro-benzyloxy)-2-(3,5-dichloro-benzyloxy)-5-hydroxy-chromen-4-one]: >50 µM; `O=c1cc(OCc2cccc(I)c2)oc2ccc(OCc3cccc(Cl)c3)c(O)c12` [5e, 6-(3-chloro-benzyloxy)-5-hydroxy-2-(3-iodo-benzyloxy)-chromen-4-one]: >50 µM. In the case of `O=c1cc(OCc2ccc(I)cc2)oc2ccc(OCc3cccc(Cl)c3)c(O)c12` [5f, 6-(3-chloro-benzyloxy)-5-hydroxy-2-(4-iodo-benzyloxy)-chromen-4-one], the “Cytotoxicity: concentration required to reduce proliferation of normal human fibroblast cell HS27 by 50%” value in series [1] was >50 µM. Turning to `N#Cc1cccc(COc2cc(=O)c3c(O)c(OCc4cccc(Cl)c4)ccc3o2)c1` [5g, 3-[6-(3-chloro-benzyloxy)-5-hydroxy-4-oxo-4H-chromen-2-yloxymethyl]-benzonitrile], the “Cytotoxicity: concentration required to reduce proliferation of normal human fibroblast cell HS27 by 50%” value in series [1] was >50 µM. With `O=C(O)/C(O)=C/C(=O)c1cccc(NCc2ccc(Cl)cc2)c1` [compound 1, reference compound], in series [1], the “Cytotoxicity: concentration required to reduce proliferation of normal human fibroblast cell HS27 by 50%” value is >50 µM. Take `O=c1c(OCc2cccc([N+](=O)[O-])c2)c(-c2ccccc2)oc2cc(O)cc(O)c12` [compound 3, reference compound]: the EC50 in series [2] was 5 µM. Besides, the “Cytotoxicity: concentration required to reduce proliferation of normal human fibroblast cell HS27 by 50%” value in series [1] was >50 µM.

On to `N#Cc1cccc(COc2cc(O)c3c(=O)c(O)c(-c4ccccc4)oc3c2)c1` [compound 4, reference compound], for which, in series [2], the EC50 is 3 µM. In addition, the “Cytotoxicity: concentration required to reduce proliferation of normal human fibroblast cell HS27 by 50%” value in series [1] is >50 µM.
